{"source": "BindingDB's records for doi:10.1021/cb400100g", "about": "(University of Massachusetts Medical School, 2013)", "data": [{"target": "Genome polyprotein (Hepatitis C virus genotype 1a (isolate H77), UniProt P27958)", "sequence (P27958 1027-1657 limits assumed)": "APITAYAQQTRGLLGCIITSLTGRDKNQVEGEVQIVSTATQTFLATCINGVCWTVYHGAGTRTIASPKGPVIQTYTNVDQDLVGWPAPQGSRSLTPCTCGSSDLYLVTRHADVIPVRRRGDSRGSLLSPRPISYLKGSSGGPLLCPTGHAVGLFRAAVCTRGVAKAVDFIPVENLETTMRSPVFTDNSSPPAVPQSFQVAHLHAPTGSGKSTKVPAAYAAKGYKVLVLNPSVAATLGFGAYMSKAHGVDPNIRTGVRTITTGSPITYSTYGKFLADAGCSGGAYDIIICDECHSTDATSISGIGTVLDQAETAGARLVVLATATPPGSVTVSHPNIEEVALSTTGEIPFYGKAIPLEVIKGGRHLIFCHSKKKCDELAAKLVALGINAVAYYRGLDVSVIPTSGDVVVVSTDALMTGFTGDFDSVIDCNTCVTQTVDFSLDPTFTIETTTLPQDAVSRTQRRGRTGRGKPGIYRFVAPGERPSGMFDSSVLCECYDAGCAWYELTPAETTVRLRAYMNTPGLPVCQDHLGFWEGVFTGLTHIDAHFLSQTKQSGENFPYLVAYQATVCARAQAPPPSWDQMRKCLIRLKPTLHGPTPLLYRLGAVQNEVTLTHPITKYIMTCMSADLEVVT", "sequence (P27958 1658-1711 limits assumed)": "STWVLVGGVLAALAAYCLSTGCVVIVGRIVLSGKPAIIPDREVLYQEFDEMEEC", "experiment": "Enzyme Inhibition Assay", "experimental": "NS3/4A protease was preincubated with increasing concentration of drugs in protease reaction buffer for 1 hour. Inhibition assays were performed in a reaction volume of 60μL. The reaction was initiated by the rapid injection of 5μL of HCV NS3/4A protease substrate to a final concentration of 200nM.", "units": {"Ki": "pM"}, "values": [{"smiles": "C=C[C@@H]1C[C@]1(NC(=O)C1C[C@@H]2CN1C(=O)[C@H](C(C)(C)C)NC(=O)OCC(C)(C)CCCCc1cccc3c1CN(C3)C(=O)O2)C(=O)NS(=O)(=O)C1CC1", "note": "(stereo partly drawn) [Dan-mcP2P4]", "Ki": 220}, {"smiles": "C=C[C@@H]1C[C@]1(NC(=O)[C@@H]1CC2CN1C(=O)[C@H](C(C)(C)C)NC(=O)O[C@@H]1C[C@H]1CCCCCc1nc3ccc(OC)cc3nc1O2)C(=O)NS(=O)(=O)C1CC1", "note": "(stereo partly drawn) [MK-5172]", "Ki": 60}, {"smiles": "CC[C@@H]1C[C@]1(NC(=O)[C@@H]1C[C@@H]2CN1C(=O)[C@H](C(C)(C)C)NC(=O)OCC(C)(C)CCCCc1cccc3c1CN(C3)C(=O)O2)C(=O)NS(=O)(=O)C1CC1", "note": "[Vaniprevir]", "Ki": 460}]}]}
